Measurements taken from paper PMC4516563 (Biochimica et biophysica acta, 2015).

Assays:
[1] = pharmacokinetic studies, clinical trials in patients; cited from earlier work
human colon HCT116 = settings: disc diffusion, 30-45 ug per disc, 7-10 days; result in words
human brain U251N = settings: disc diffusion, 30-45 ug per disc, 7-10 days; result in words
[2] = system: human pancreatic cancer PANC1; settings: disc diffusion, 30-45 ug per disc, 7-10 days; result in words

In the case of Kahalalide F [KF], the half-life [1] is given as “approximately 30 min”, the “cytotoxicity based on the zone assay, HCT-116” value (human colon HCT116) is given as “minimal” and the “cytotoxicity based on the zone assay, U251N” value (human brain U251N) is given as “minimal”. For the same substance, the “cytotoxicity based on the zone assay, PANC-1” value [2] was “minimal”.
